Assay results from ChEMBL document CHEMBL1155604, “New norditerpenoid alkaloids from Aconitum falconeri” (J Nat Prod, 2000).
Calls of active or inactive are those of the source. No cut-off for these calls is given here.

Assays:
[1] = (§1) Inhibition of electric eel acetylcholinesterase type VI-S after 30 mins by modified Ellman's assay; parameters: species or system Electrophorus electricus
[2] = test system: Electrophorus electricus; assay: as §1

Row | Compound | IC50 [1] [µM] | Activity [2]
1 | CCN1C[C@]2(COC)[C@H](O)C[C@H](OC)[C@]34C1[C@H]([C@H](OC)[C@H]23)[C@@]1(OC(C)=O)C[C@H](OC)[C@@]2(O)C[C@@H]4[C@@H]1[C@H]2OC(=O)c1ccc(OC)c(OC)c1 [PSEUDACONITINE] | 278 | 
2 | CCO[C@]12C[C@H](OC)[C@@]3(O)C[C@H]([C@@H]1[C@H]3OC(=O)c1ccc(OC)c(OC)c1)[C@@]13C4[C@@H]2[C@H](OC)[C@@H]1[C@](COC)(CN4CC)[C@H](O)C[C@@H]3OC |  | inactive
3 | COC[C@]12CN(C=O)C3[C@@H]4[C@H](OC)[C@H]1[C@@]3([C@@H](OC)C[C@H]2O)[C@@H]1C[C@]2(O)[C@@H](OC)C[C@@]4(OC(C)=O)[C@H]1[C@H]2OC(=O)c1ccc(OC)c(OC)c1 [FALEOCONITINE] | 293 | 
